“And” between values parts separate entries of the source, which are not always exact repeats. Equal entries are not always repeated. “Also recorded” adds a separate entry of the source. Where two headings read alike, the source gives them in different places. Peptide text beside a SMILES is read from it.
How the values were obtained:
[1] = test system: SARS-CoV-2 live virus (B.1 lineage), Vero E6 cells; type: cell-based
[2] = test system: SARS-CoV-2 Spike pseudotyped viruses, HEK-293T-ACE2 cells; type: cell-based, SARS-CoV-2 (Wuhan-Hu-1 Spike); conditions: for inhibition of pseudovirus, in words: 10 µM
Cytocompatibility (CCK8) = type: cell-based, human; conditions: human, A549 cells, read-out: cytocompatibility, normalized to serum free media; for viability at 6 h, 10 µM: 0.01 mM peptide; for viability at 6 h, 100 µM: 0.1 mM peptide; for viability at 6 h, 1000 µM: 1 mM peptide
Procedure: (§1) Cytocompatibility of the peptides was evaluated at 1, 0.1, and 0.01 mM with A549 cells (ATCC CCL-185) cultured in complete media consisting of 90% F-12K and 10% FBS. The A549 cells were utilized after their first passage and seeded at 10,000 cells/well in a 96-well plate for 24 hours. The conditions were prepared in serum-free A549 media and introduced into the wells for 6 hours, after which the condition media were aspirated, the wells were washed once with PBS, and 10 µL of CCK8 was added to 100 µL of PBS[32]. The plate was incubated for 1 hour and read on a Tecan M200 Infinite plate reader at an absorbance of 450 nm with a reference wavelength of 650 nm. The results were analyzed and normalized to the serum-free media control[28],[32],[76].

A549 cells = assay: Cytocompatibility (CCK8); type: cell-based, human; conditions: human alveolar epithelial A549 cells; 0.01-1 mM
Procedure: as §1

[3] = Daily repeat IV dosing, 10 days (chronic PK/safety); type: in vivo, rat (female Wistar)
Procedure: (§2) Female Wistar rats (225–250 g, 8–12 weeks old) were observed and acclimatized for 2 weeks prior to running the studies. They were housed in a controlled environment with temperature at […] and 40–70% humidity. They were kept in an alternating 12-hour light/dark cycle, and food, and water was provided as pellets ad libitum. Female Wistar Rats were used for the pharmacokinetics and the drug clearance analysis from the blood. The two hydrogels (ESBP2 and ESBP3) at 10 mg/ml concentration were injected into the rats via the lateral tail vein. For subcutaneous implants, the substance was injected between the shoulder blades and above the lumbar vertebrae, 200 μL each, using a 25-gauge needle. The hydrogel bolus was prepared with 0.9% saline and was injected within 1–2 minutes. The volume injected was approximately 1% of the total body weight of the rat, which was calculated prior to the dosing. The initial blood draw was performed for baseline, and the subsequent blood collection was performed from the lateral vein using 25 g butterfly needles.
Female Wistar rats (225–250 g, 8–12 weeks old) were weighed and repeatedly dosed (1% by weight) IV with ESBP2 or ESBP3 daily at 10 mg/mL (~3 mM). Rat blood samples were collected daily prior to injection via tail vein. Post 10 days of treatment, animals were allowed to recover for 10 days and then sacrificed. Plasma was stored and analyzed as above. The body weight was recorded every day prior to the blood collection.

[4] = Acute IV pharmacokinetics; type: in vivo, rat (female Wistar)
Procedure: as §2
Rat blood samples were collected at 0, 5, 15, 30 minutes, and 1, 2, 4, 8, and 24 hours post-injection timepoints for Acute PK and were aliquoted out into heparinized tubes to prevent coagulation and stored on top of ice packs. Blood collected in K2EDTA anticoagulant tubes was processed to plasma frozen via centrifugation at 13000 RCF for 10 minutes at 4 °C and stored at −80 °C till analysis using HPLC. The body weight was recorded every day prior to the blood collection.

[5] = replicate 1, CCK8, 6 h exposure, absorbance 450 nm

Row | Molecule | Normalized, Average [2] | inhibition of pseudovirus, in words [2] | viability at 6 h, 10 µM (Cytocompatibility (CCK8); replicate 1, CCK8, 6 h) [%] | viability at 6 h, 10 µM (Cytocompatibility (CCK8); replicate 2, CCK8, 6 h) [%] | viability at 6 h, 100 µM (Cytocompatibility (CCK8); replicate 1, CCK8, 6 h) [%] | viability at 6 h, 100 µM (Cytocompatibility (CCK8); replicate 2, CCK8, 6 h) [%] | viability at 6 h, 100 µM (Cytocompatibility (CCK8); replicate 3, CCK8, 6 h) [%] | viability at 6 h, 1000 µM (Cytocompatibility (CCK8); [5]) [%] | viability at 6 h, 1000 µM (Cytocompatibility (CCK8); replicate 2, CCK8, 6 h) [%] | viability at 6 h, 1000 µM (Cytocompatibility (CCK8); replicate 3, CCK8, 6 h) [%] | cytocompatibility, in words (A549 cells) | in vitro live virus inhibition, in words [1] | other results
1 | CC[C@H](C)[C@H](NC(=O)CNC(=O)[C@H](CCC(=O)O)NC(=O)[C@H](CC(C)C)NC(=O)[C@H](CO)NC(=O)[C@H](CC(C)C)NC(=O)[C@H](CO)NC(=O)[C@H](CC(C)C)NC(=O)[C@H](CO)NC(=O)[C@H](CC(C)C)NC(=O)[C@H](CO)NC(=O)[C@H](CC(C)C)NC(=O)[C@H](CO)NC(=O)[C@H](CC(C)C)NC(=O)[C@H](CO)NC(=O)[C@H](CCC(=O)O)NC(C)=O)C(=O)N[C@@H](CCC(=O)O)C(=O)N[C@@H](CCC(=O)O)C(=O)N[C@@H](CCC(N)=O)C(=O)N[C@@H](C)C(=O)N[C@@H](CCCCN)C(=O)N[C@H](C(=O)N[C@@H](Cc1ccccc1)C(=O)N[C@@H](CC(C)C)C(=O)N[C@@H](CC(=O)O)C(=O)N[C@@H](CCCCN)C(=O)N[C@@H](Cc1ccccc1)C(=O)N[C@@H](CC(N)=O)C(=O)N[C@@H](Cc1c[nH]cn1)C(=O)N[C@@H](CCC(=O)O)C(=O)N[C@@H](C)C(=O)N[C@@H](CCC(=O)O)C(=O)N[C@@H](CC(=O)O)C(=O)N[C@@H](CC(C)C)C(=O)N[C@@H](Cc1ccccc1)C(=O)N[C@@H](Cc1ccc(O)cc1)C(=O)N[C@@H](CCC(N)=O)C(=O)N[C@@H](CO)C(N)=O)[C@@H](C)O [ESBP1] | 0.2588 | inhibited pseudovirus to a similar degree | – | – | – | – | – | – | – | – | – | – | live virus inhibition, in words [1]: significant improvement in viral inhibition; Relative PFU ([1]; 10 µM): 51.2258 and 58.5437 and 80.4976
2 | CC[C@H](C)[C@H](NC(=O)CNC(=O)[C@H](CCCCN)NC(=O)[C@H](CC(C)C)NC(=O)[C@H](CO)NC(=O)[C@H](CC(C)C)NC(=O)[C@H](CO)NC(=O)[C@H](CC(C)C)NC(=O)[C@H](CO)NC(=O)[C@H](CC(C)C)NC(=O)[C@H](CO)NC(=O)[C@H](CC(C)C)NC(=O)[C@H](CO)NC(=O)[C@H](CC(C)C)NC(=O)[C@H](CO)NC(=O)[C@H](CCCCN)NC(C)=O)C(=O)N[C@@H](CCC(=O)O)C(=O)N[C@@H](CCC(=O)O)C(=O)N[C@@H](CCC(N)=O)C(=O)N[C@@H](C)C(=O)N[C@@H](CCCCN)C(=O)N[C@H](C(=O)N[C@@H](Cc1ccccc1)C(=O)N[C@@H](CC(C)C)C(=O)N[C@@H](CC(=O)O)C(=O)N[C@@H](CCCCN)C(=O)N[C@@H](Cc1ccccc1)C(=O)N[C@@H](CC(N)=O)C(=O)N[C@@H](Cc1c[nH]cn1)C(=O)N[C@@H](CCC(=O)O)C(=O)N[C@@H](C)C(=O)N[C@@H](CCC(=O)O)C(=O)N[C@@H](CC(=O)O)C(=O)N[C@@H](CC(C)C)C(=O)N[C@@H](Cc1ccccc1)C(=O)N[C@@H](Cc1ccc(O)cc1)C(=O)N[C@@H](CCC(N)=O)C(=O)N[C@@H](CO)C(N)=O)[C@@H](C)O [KSBP1] | 0.8193 | significant decrease in inhibitory effect | – | – | – | – | – | – | – | – | – | – | –
3 | CSCC[C@H](NC(=O)[C@H](Cc1ccccc1)NC(=O)[C@H](CCCCN)NC(=O)[C@H](CC(=O)O)NC(=O)[C@H](CC(C)C)NC(=O)[C@H](Cc1ccccc1)NC(=O)[C@@H](NC(=O)[C@H](CCCCN)NC(=O)[C@H](CC(C)C)NC(=O)[C@H](CCC(N)=O)NC(=O)[C@H](CCC(=O)O)NC(=O)[C@H](CCC(=O)O)NC(=O)[C@H](CC(C)C)NC(=O)[C@H](C)NC(=O)[C@H](CO)NC(C)=O)[C@@H](C)O)C(=O)N[C@@H](Cc1c[nH]cn1)C(=O)N[C@@H](CCC(=O)O)C(=O)N[C@@H](CC(C)C)C(=O)N[C@@H](CCC(=O)O)C(=O)N[C@@H](CC(=O)O)C(=O)N[C@@H](CC(C)C)C(=O)N[C@@H](CC(C)C)C(=O)N[C@@H](Cc1ccc(O)cc1)C(=O)N[C@@H](CCC(N)=O)C(=O)N[C@@H](CC(C)C)C(=O)N[C@@H](C)C(=O)N[C@@H](CC(C)C)C(N)=O [SBP2, reference compound] (Ac-SALEEQLKTFLDKFMHELEDLLYQLAL-NH2) | – | – | 105 | 92.2 | 107 | 104 | 91.4 | 85.7 | 122 | 150 | excellent cytocompatibility | inhibition of live virus | –
4 | CC[C@H](C)[C@H](NC(=O)[C@H](Cc1ccc(O)cc1)NC(=O)[C@@H](NC(=O)[C@H](CCCCN)NC(=O)[C@H](Cc1ccc(O)cc1)NC(=O)[C@H](CCC(N)=O)NC(C)=O)[C@@H](C)O)C(=O)N[C@@H](CC(=O)O)C(=O)N[C@@H](CCCCN)C(=O)N[C@@H](CC(N)=O)C(=O)N[C@@H](CC(N)=O)C(=O)N[C@@H](Cc1c[nH]cn1)C(=O)N[C@@H](Cc1ccc(O)cc1)C(=O)N[C@@H](C)C(=O)N[C@@H](CCC(=O)O)C(=O)N[C@@H](CC(=O)O)C(=O)N[C@@H](CCC(=O)O)C(=O)N[C@@H](CCCNC(=N)N)C(=O)N[C@@H](Cc1ccc(O)cc1)C(=O)N[C@@H](CCCCN)C(N)=O [SBP3] (Ac-QYKTYIDKNNHYAEDERYK-NH2) | – | – | 104 | 96.9 | 77.8 | 94.4 | 95.5 | 144 | 139 | – | – | – | Comparative, Average [1]: 72.3704; live virus plaque inhibition, in words [1]: no major differences
5 | Ac-ESLSLSLSLSLSLEGSALEEQLKTFLDKFMHELEDLLYQLAL-NH2 [ESBP2] | – | – | 94.5 | 98.3 | 129 | 132 | 196 | 117 | 104 | 94.1 | excellent cytocompatibility | inhibition of live virus; also recorded: significantly improved in vitro live virus inhibition | repeat IV dosing safety, in words ([3]; daily IV for 10 days, ~1 w% (10 mg/mL), 225-250 g adult rats): no adverse effect; significant changes in body weight (ESBP3 also animal behavior, adverse events, gross organ morphology) compared to carrier ([3]; daily repeated IV dosing for 10 days, rats): no; eliminated by ([4]; ESBP2 IV bolus through the tail vein, Wistar rats (n=8)): ≤ 8 h; clearance from the circulation (time) ([4]; acute 24-hour single-dose IV bolus PK, rats): 4 to 8 h; Tmax ([4]; female, rat, 10 mg/mL, ESBP2 IV bolus through the tail vein, Wistar rats (n=8), plasma, HPLC, read-out: time of concentration peak (converted)): 30 min; Cmax ([4]; female, rat, plasma, 10 mg/mL, ESBP2 IV bolus, Wistar rats (n=8), at 30 minutes following injection, read-out: observed maximum concentration): 36000 ng/mL; AUC ([4]; female, rat, plasma, 10 mg/mL, ESBP2 IV bolus, Wistar rats (n=8), read-out: area under the curve): 47000 ng·h/mL
